Results taken from the supplement of paper PMC6045584.

Experiments:
Test in all cases: area under dose-response curve of surviving fraction (unscaled, Aref=0) (surviving fraction x log10(nM)); higher = more resistant
Details in all cases: exposure time: 5 days; dose range 0.5-1000 nM
MDV3100 = compound: CNC(=O)c1ccc(N2C(=S)N(c3ccc(C#N)c(C(F)(F)F)c3)C(=O)C2(C)C)cc1F [MDV3100]
Procedure, shortened: (§1)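 Tumour cell lines in 384-well plates were exposed for five days to eight inhibitor concentrations from 0.5 to 1000 nM. Viability was read by CellTiter-Glo luminescence, normalised to DMSO-only wells, in three screens per line. Dose-response survival curves were fitted to surviving fractions by 3-parameter logistic regression in the drc R package. Area under the curve is the unscaled activity area (Aref = 0) over log10 dose.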

CANERTINIB = compound: C=CC(=O)Nc1cc2c(Nc3ccc(F)c(Cl)c3)ncnc2cc1OCCCN1CCOCC1 [CANERTINIB]
Procedure, shortened: as §1

TIOGUANINE = compound: Nc1nc2[nH]cnc2c(=S)[nH]1 [TIOGUANINE]
Procedure, shortened: as §1

BI-2536 = compound: CC[C@@H]1C(=O)N(C)c2cnc(Nc3ccc(C(=O)NC4CCN(C)CC4)cc3OC)nc2N1C1CCCC1 [BI-2536]
Procedure, shortened: as §1

Test System	area under dose-response curve (MDV3100)	area under dose-response curve (CANERTINIB)	area under dose-response curve (TIOGUANINE)	area under dose-response curve (BI-2536)
MG63 BONE	3.28	3.24	3.29	1.12
JIMT1 BREAST	3.33	2.93	3.25	0.911
BT549 BREAST	3.26	2.74	3.29	0.891
HMLE3 BREAST	3.23	2.91	3.06	1.26
SG43 HEADNECK	3.06	1.92	2.96	1.83
HELA CERVIX	3.16	3.11	3.36	1
SG27 HEADNECK		3.27	3.34	2.97
CAL72 BONE	3.36		3.66	0.831
SG31 HEADNECK	3.39	2.3		2.2
MDAMB157 BREAST	3.08	2.78	3.03	0.791
ZR751 BREAST	3.69	2.8		2.69
CHLA90 AUTONOMIC GANGLIA	2.67	2.51	3.12	1.2
OS25HAL BONE	3.23	3.13	3.21	0.792
COLO320DM LARGE INTESTINE	3.31	3.25	3.52	1.68
OSHN BONE	3.44	3.16		1.13
SIHA CERVIX	3.05	2.92	3.01	1.43
HCC1954 BREAST		0.92	3.09	1.92
CAL51 BREAST	3.24	3.08	3.31	0.68
HT1080 SOFT TISSUE	3.42	3.29	3.16	1.26
MDAMB468 BREAST	3.41	2.41	3.52	1.06
CASKI CERVIX	3.17	1.85	3.1	0.43
HSSYII SYNOVIAL	2.74	2.66	3.09	0.796
HCC78 LUNG	2.9	2.55	2.59	0.803
HCC1806 BREAST	3.52	2.12	3.5	0.671
U2OS BONE	3.37	3.13	3.25	1.57

Test System	area under dose-response curve (MDV3100)	area under dose-response curve (CANERTINIB)	area under dose-response curve (TIOGUANINE)	area under dose-response curve (BI-2536)
MDAMB361 BREAST	2.85	2.35	2.95	1.68
LNCAP PROSTATE	3.01		3.21	0.892
SUM44 BREAST	3.43	2.78	3.39	0.689
HOS BONE	3.36	3.14	3.16	0.874
SAOS2 BONE	3.65	2.87	3.44	0.684
HCT15 LARGE INTESTINE	2.75	2.73		1.88
MDAMB436 BREAST	3.1	2.86	2.8	1.46
HUO3N1 BONE	3.37	3.18	3.41	1.56
MDAMB134 BREAST		2.36	3.2	2.89
JURKAT HAEMATOPOIETIC AND LYMPHOID TISSUE	3.49	3.29	3.27	0.479
CADOES1 SOFT TISSUE	2.95	3	3.12	1.66
SJSA1 BONE	2.71		3.46	1.58
HCC70 BREAST	3.28	3	3.37	2
SYO1 SYNOVIAL	2.45	2.48	2.43	0.562
VCAP PROSTATE		3.15	3.49	0.516
MDAMB453 BREAST	3.16	3.19	3.28	0.857
KPD BONE	3.28	3.06	3.35	1.5
NOS1 BONE		3.08	3.79	1.35
MHM BONE	3.28	3.2	3.29	2.08
G292 BONE	3.25	3.18	3.25	0.883
PCI30 HEADNECK	3.18	2.01	3.19	1.08
93VU HEADNECK	3.11	2.56	3.19	1.49
22RV1 PROSTATE	3.12	3.32	3.28	0.963
MFM223 BREAST	3.56	2.88	3.53	0.566
HU09 BONE		3.15	3.42	0.614

Test System	area under dose-response curve (MDV3100)	area under dose-response curve (CANERTINIB)	area under dose-response curve (TIOGUANINE)	area under dose-response curve (BI-2536)
H23 LUNG	3.13	1.77	3.25	1.66
YAMATO SYNOVIAL	2.85	3.14	4.3	1.27
SCC003 HEADNECK	3.21	2.54	3.27	1.71
VP229 BREAST		1.58	3.57	1.18
LM7 BONE	3.51	2.42	3.33	0.659
SNU475 LIVER	2.8	2.91	3.14	1.41
SUM149.B1*.S BREAST	2.91	3	3.25	2
SCC90 HEADNECK		2.13	3.22	0.697
S68 BREAST	3.58	2.53	3.32	1.03
C33A CERVIX	3.15		2.8	0.996
MDAMB231 BREAST	3.22	3.15	3.15	1.56
ASKA SYNOVIAL			3.56	1.04
DU4475 BREAST	3.04	2.65	2.55	1.14
NY BONE	3.06	3.13	3.27	0.972
HOSMNG BONE	3.56	3.4	3.34	1.32
HCC202 BREAST			4.41	1.68
T47D BREAST	3.29	3.01	3.35	1.66
SG32 HEADNECK	3.4	2.35	3.59	1.44
HS578T BREAST	3.38	2.92	3.13	0.912
A549 LUNG	3.23	3.08	3.21	1.16
SUM159 BREAST	3.33	3.11		1.81
RDES SOFT TISSUE	3.91	2.83		1.09
143B BONE			3.27	0.815
